The subject of series [1] is human cervical cancer cells (HeLa). Briefly: MTT cytotoxicity assay, HeLa cells. Conditions: for IC50: Homo sapiens; for cytotoxicity against HeLa cells, in words: screening at 50 μM, 20 μM and 2 μM (FIGS. 1-2). It counts as cell-based. Here is the method: (§1) Two cell human cancer cell lines were used in this study: human cervical cancer cells (HeLa) and human embryonic kidney 293 cells (Hek). The cell lines were obtained from ATCC (Rockville, Md., USA). Cell lines were cultured at 37° C. and 5% CO2 in DMEM medium with 10% fetal bovine serum (FBS) and 1% penicillin/streptomycin (all obtained from GibcoBRL, Grand Island, N.Y.). Cells were passaged three times weekly by trypsinisation with 0.25% trypsin/0.02% EDTA solution (Sigma) into 75 cm^2 tissue culture flasks (Nunc, Denamark).
(§2) Both human cervical cancer cells (HeLa) and human embryonic kidney 293 cells (Hek) cell lines were seeded into 96-well plate (2.5×10^4 in 100 μL per well). Testing compounds were dissolved or suspended in DMSO to make 10 mM stock solutions. Addition of compounds was performed after adherent cells reached 40-50% confluence. After incubation for 48 h at 37° C. in humidified atmosphere with 5% CO2, 10 μL of MTT (5 mg/mL in PBS) was added to each well and incubated for another 4 h. The culture medium was then aspirated and 100 μL of DMSO was added to each well. Optical densities at 490 nm were measured by microplate reader (PERKINELMER VICTOR 3V model 1420). All tests were performed in triplicates. Doxorubicin was used as a positive control and the same amount DMSO without compound was used as negative control. IC50 values were obtained from the curve fitting by using Sigma plot10.

Series [2] has as its system human embryonic kidney 293 cells (Hek). Briefly: MTT cytotoxicity assay, Hek cells. It counts as cell-based. Particulars: Hek 293 cells, 48 h incubation. Here is the method:
as §1, §2
For orientation: Formazan colour is commonly taken as a measure of viable cells.

The subject of the next series is KB cell. Kind of series: Cytotoxicity against KB cell line. Type of series: cell-based. Particulars: Homo sapiens, mean ± spread, unit inferred, read-out: IC50 KB cell (Table 6).
A further series has as its system DU145 cell. Briefly: Cytotoxicity against DU145 cell line. Type of series: cell-based. Particulars: Homo sapiens, DU-145, mean ± spread, unit inferred, read-out: IC50 DU145 cell (Table 6).
Another series has as its system PC3 cell. Kind of series: Cytotoxicity against PC3 cell line. Particulars: Homo sapiens, PC-3, mean ± spread, unit inferred, read-out: IC50 PC3 cell (Table 6). Type of series: cell-based.
Another series has as its system Molt4 cell. Kind of series: Cytotoxicity against MOLT4 cell line. Type of series: cell-based. Particulars: Homo sapiens, MOLT-4; Table 3, SM compounds.
Setting [3] is: HeLa cells, MTT assay, 48 h incubation, read-out: IC50 (μM) Hela.
Where [4] appears, read: HeLa cells, MTT assay, range or bound stated in text, read-out: IC50 against HeLa cancer cell lines.
Where [5] appears, read: HeLa cell, mean ± spread, unit inferred, read-out: IC50 HeLa cell (Table 6).
The mark [6] stands for this setting: HeLa, Table 3, SM compounds, read-out: IC50 (μM) against Hela cell.

Like-named read-outs stand apart in the source and are kept apart here. A value given as a limit tells only on which side of the number the result lay.

For orientation: IC50 means the concentration at which inhibition is half-maximal. As a reminder, the melting point is the temperature of the solid-liquid transition. For the molecule `Cc1ccc(S(=O)(=O)N2C/C(=C\c3ccc(Br)cc3)C(=O)/C(=C/c3ccc(Br)cc3)C2)cc1` [3a, 3,5-Bis(4-bromobenzylidene)-1-tosylpiperidin-4-one], the melting point came out at 214 °C. Also, the IC50 in series [1] (setting [3]) was 0.28 µM. The IC50 in series [1] (setting [4]) was in the range of 0.3 to 1.5 µM. For the same molecule, the “cytotoxicity against HeLa cells, in words” value (shortened to “cytotoxicity”) in series [1] (MTT assay) was “very good activity”. This molecule also came in with an IC50 in series [2] of 1.39 µM. In addition, the half-inhibitory concentration (IC50) in series [2] (Homo sapiens, HEK293, 48 h) lay within 1.24 to 3.54 µM.

`Cc1ccc(S(=O)(=O)N2C/C(=C\c3ccc(F)cc3)C(=O)/C(=C/c3ccc(F)cc3)C2)cc1` [3j, 3,5-Bis(4-fluorobenzylidene)-1-tosylpiperidin-4-one]: the melting point came to 204 °C. For the same molecule, in series [1] (setting [3]), the IC50 came to 0.61 µM. For the same molecule, in series [1] (setting [4]), the IC50 was 0.3 to 1.5 µM. Further, in series [2], half-maximal inhibition (IC50) required 1.24 µM. For the same molecule, the IC50 in series [2] (Homo sapiens, HEK293, 48 h) lay within 1.24 to 3.54 µM.

As for `O=C1/C(=C/c2ccc(Cl)cc2)CN(S(=O)(=O)c2ccccc2)C/C1=C\c1ccc(Cl)cc1` [4e, 3,5-Bis(4-chlorobenzylidene)-1-(phenylsulfonyl)piperidin-4-one], the melting point is 237 °C. The IC50 in series [1] (setting [3]) was 0.85 µM. In addition, the IC50 in series [1] (setting [4]) is 0.3 to 1.5 µM. Besides, the “cytotoxicity” value in series [1] (MTT assay) was “very good activity”. The IC50 in series [2] was 1.97 µM. Also, the IC50 in series [2] (Homo sapiens, HEK293, 48 h) was 1.24 to 3.54 µM.

The molecule `O=C1/C(=C/c2ccc(Br)cc2)CN(S(=O)(=O)c2ccccc2)C/C1=C\c1ccc(Br)cc1` [4i, 3,5-Bis(4-bromobenzylidene)-1-(phenylsulfonyl)piperidin-4-one] returned a melting point of 247 °C. Also, the 50% inhibitory concentration (IC50) in series [1] (setting [3]) amounted to 1.44 µM. Moreover, the IC50 in series [1] (setting [4]) is 0.3 to 1.5 µM.

As for `CCN1C/C(=C\c2ccc(C(C)C)cc2)C(=O)/C(=C/c2ccc(C(C)C)cc2)C1` [6g, 1-Ethyl-3,5-bis(4-isopropylbenzylidene)piperidin-4-one], the half-inhibitory concentration (IC50) in series [1] (setting [3]) was 0.86 µM; in series [1] (setting [4]), less than 1 µM; in series [2], 1.78 µM; in series [2] (Homo sapiens, HEK293, 48 h), 1.24 to 3.54 µM. Besides, the “cytotoxicity” value in series [1] (MTT assay) is “very good activity”.

With `CCCCCn1cc(CN2CC(=Cc3ccc(CCC)cc3)C(=O)C(=Cc3ccc(CCC)cc3)C2)nn1` [15c, 1-[(1-Pentyl-1H-1,2,3-triazol-4-yl)methyl]-3,5-bis(4-propylbenzylidene)piperidin-4-one], the melting point turned out to be 134 °C.

Consider `CCCCc1ccc(C=C2CN(Cc3cn(CCC)nn3)CC(=Cc3ccc(CCCC)cc3)C2=O)cc1` [16a, 3,5-Bis(4-butylbenzylidene)-1-[(1-propyl-1H-1,2,3-triazol-4-yl)methyl]piperidin-4-one], for which the melting point worked out at 127 °C.

In turn, `CCCCc1ccc(C=C2CN(Cc3cn(CCCC)nn3)CC(=Cc3ccc(CCCC)cc3)C2=O)cc1` [16b, 1-[(1-Butyl-1H-1,2,3-triazol-4-yl)methyl]-3,5-bis(4-butylbenzylidene)piperidin-4-one] showed a melting point of 136 °C.

The molecule `CCCCCn1cc(CN2CC(=Cc3ccc(CCCC)cc3)C(=O)C(=Cc3ccc(CCCC)cc3)C2)nn1` [16c, 3,5-Bis(4-butylbenzylidene)-1-[(1-pentyl-1H-1,2,3-triazol-4-yl)methyl]piperidin-4-one] yielded a melting point of 145 °C.

`COc1cccc2c1C(=O)c1c(O)c3c(c(O)c1C2=O)C[C@@](O)(C(=O)CO)C[C@@H]3O[C@H]1C[C@H](N)[C@H](O)[C@H](C)O1` [Doxorubicin, reference compound]: the 50% inhibitory concentration (IC50) worked out at 0.96 ± 0.27 µM in series [1] (setting [5]); 2.89 µM in series [1] (setting [3]); 0.95 µM in series [2] (Homo sapiens, HEK293, 48 h); 0.4 ± 0.11 µM in the series with KB cell; 0.47 ± 0.25 µM with DU145 cell; 0.23 ± 0.01 µM with PC3 cell.

On to `COc1cc(/C=C2\CC/C(=C\c3ccc(OCCBr)c(OC)c3)C2=O)ccc1OCCBr` [SM216], for which the figures for the 50% inhibitory concentration (IC50) (in series [1] (setting [6]); with Molt4 cell) were greater than 2.5 µM and greater than 50 µM, respectively.

Turning to `COc1cc(/C=C2\CC/C(=C\c3ccc(OCCN4CCOCC4)c(OC)c3)C2=O)ccc1OCCN1CCOCC1` [SM218], the IC50 (in series [1] (setting [6]); with Molt4 cell) was greater than 2.5 µM each time.

For the molecule `COc1cc(/C=C2\CC/C(=C\c3ccc(OCCn4ccnc4)c(OC)c3)C2=O)ccc1OCCn1ccnc1` [SM223], the IC50 (in series [1] (setting [6]); in the series on Molt4 cell) was greater than 2.5 µM each time.

Turning to `COc1cc(/C=C2\CC/C(=C\c3ccc(OCCN4CCCCC4)c(OC)c3)C2=O)ccc1OCCN1CCCCC1` [SM226], the IC50 in series [1] (setting [6]) was found to be 0.02 µM; in the series with Molt4 cell it was 0.4 µM.

Regarding `COc1cc(/C=C2\CC/C(=C\c3ccc(OCCN(C)C)c(OC)c3)C2=O)ccc1OCCN(C)C` [SM229], the figures for the 50% inhibitory concentration (IC50) (in series [1] (setting [6]); in the series on Molt4 cell) were 0.03 µM and 0.5 µM, respectively.

On to `COc1cc(/C=C2\CC/C(=C\c3ccc(OCCn4ccnc4C)c(OC)c3)C2=O)ccc1OCCn1ccnc1C` [SM232], for which the IC50 in series [1] (setting [6]) is 0.1 µM; with Molt4 cell, 0.9 µM.

In the case of `CCc1ccc(/C=C2\CN(Cc3cn(CCNc4ccnc5cc(Cl)ccc45)nn3)C/C(=C\c3ccc(CC)cc3)C2=O)cc1` [SR13], the IC50 is 5.3 ± 2.8 µM in series [1] (setting [5]), 3.7 ± 0.21 µM in the series on KB cell, 6.5 ± 3 µM in the series with DU145 cell and 3.7 ± 2.1 µM with PC3 cell.

Regarding `O=C1/C(=C/c2ccc(Br)cc2)CN(Cc2cn(CCNc3ccnc4cc(Cl)ccc34)nn2)C/C1=C\c1ccc(Br)cc1` [SR14], the IC50 amounted to 2.7 ± 1.3 µM in series [1] (setting [5]), 1.2 ± 0.32 µM with KB cell, 6.6 ± 4.6 µM in the series on DU145 cell and 1.5 ± 0.24 µM in the series on PC3 cell.

`O=C1/C(=C/c2ccc(Cl)cc2)CN(Cc2cn(CCNc3ccnc4cc(Cl)ccc34)nn2)C/C1=C\c1ccc(Cl)cc1` [SR15]: the half-maximal inhibitory concentration (IC50) amounted to 2.1 ± 0.35 µM in series [1] (setting [5]), 3 ± 0.31 µM with KB cell, 3.1 ± 1.3 µM in the series on DU145 cell and 3.1 ± 1.8 µM in the series on PC3 cell.

On to `O=C1/C(=C/c2ccc(F)cc2)CN(Cc2cn(CCNc3ccnc4cc(Cl)ccc34)nn2)C/C1=C\c1ccc(F)cc1` [SR16], for which the IC50 in series [1] (setting [5]) stood at 2.2 ± 0.93 µM; with KB cell, 2.6 ± 0.41 µM; in the series with DU145 cell, 3.7 ± 2.4 µM; in the series with PC3 cell, 2 ± 0.05 µM.

Consider `O=C1/C(=C/c2cccc(Br)c2)CN(Cc2cn(CCNc3ccnc4cc(Cl)ccc34)nn2)C/C1=C\c1cccc(Br)c1` [SR17], for which the IC50 in series [1] (setting [5]) is 2.5 ± 1.2 µM; with KB cell it was 4.3 ± 2.4 µM; in the series on DU145 cell, 9.6 ± 7.3 µM; in the series on PC3 cell it was 2.8 ± 0.8 µM.

With `Cc1ccc(/C=C2\CN(Cc3cn(CCCNc4ccnc5cc(Cl)ccc45)nn3)C/C(=C\c3ccc(C)cc3)C2=O)cc1` [SR34], the IC50 in series [1] (setting [5]) was found to be 2.8 ± 0.93 µM; in the series on KB cell, 4.7 ± 1.1 µM; in the series on DU145 cell, 4 ± 0.49 µM; in the series with PC3 cell, 2.7 ± 0.8 µM.

Turning to `O=C1/C(=C/c2ccc(Br)cc2)CN(Cc2cn(CCCNc3ccnc4cc(Cl)ccc34)nn2)C/C1=C\c1ccc(Br)cc1` [SR36], the IC50 in series [1] (setting [5]) came to 2 ± 1.2 µM; in the series with KB cell, 1.5 ± 0.3 µM; in the series on DU145 cell, 1.9 ± 0.59 µM; in the series on PC3 cell it was 1.7 ± 0.24 µM.

On to `COc1ccc(/C=C2\CN(Cc3cn(CCCNc4ccnc5cc(Cl)ccc45)nn3)C/C(=C\c3ccc(OC)cc3)C2=O)cc1` [SR37], for which the concentration for half-maximal inhibition (IC50) in series [1] (setting [5]) was found to be 5 ± 2.2 µM; in the series with KB cell it was 4.7 ± 0.87 µM; in the series with DU145 cell it was 6.7 ± 1.9 µM; with PC3 cell it was 11 ± 2.7 µM.

On to `COc1ccc(/C=C2\CN(Cc3cn(CCCNc4ccnc5cc(Cl)ccc45)nn3)C/C(=C\c3ccc(OC)c(OC)c3)C2=O)cc1OC` [SR38], for which the IC50 in series [1] (setting [5]) turned out to be 2.5 ± 1.3 µM; with KB cell it was 2.1 ± 0.05 µM; with DU145 cell it was 6.7 ± 4.4 µM; in the series on PC3 cell, 2.6 ± 0.4 µM.

As for `O=C1/C(=C/c2ccc(F)cc2)CN(Cc2cn(CCCNc3ccnc4cc(Cl)ccc34)nn2)C/C1=C\c1ccc(F)cc1` [SR39], the IC50 worked out at 2.6 ± 1.4 µM in series [1] (setting [5]), 2.6 ± 0.69 µM in the series with KB cell, 5.3 ± 2.8 µM with DU145 cell and 3 ± 0.75 µM with PC3 cell.

Consider `O=C1/C(=C/c2ccc(Cl)cc2)CN(Cc2cn(CCCNc3ccnc4cc(Cl)ccc34)nn2)C/C1=C\c1ccc(Cl)cc1` [SR40], for which the IC50 in series [1] (setting [5]) was found to be 1.8 ± 0.65 µM; in the series with KB cell, 1.8 ± 0.29 µM; in the series on DU145 cell it was 1.9 ± 0.62 µM; in the series on PC3 cell, 1.8 ± 0.68 µM.
